From patent US20040072738A1, “Analogues of thiocoraline and be-22179” (priority 2000, published 2004)
In brackets after ≈: the same amount, converted by molar mass. Bridge positions count the residues as written; N and C are the ends. Square brackets hold non-standard residues; d marks the D form. Peptide text beside a SMILES is read from it. I, II: the chains in the order shown. * marks the point of attachment. Quinaldoyl(3-OH,6-OMe) = COc1ccc2nc(C(=O)*)c(O)cc2c1; Quinoxaline2carbonyl = O=C(c1cnc2ccccc2n1)*; Quinaldoyl(3-OH) = O=C(c1nc2ccccc2cc1O)*; Fmoc = O=C(OCC1c2ccccc2-c2ccccc21)*; Quinaldoyl = O=C(c1ccc2ccccc2n1)*; NMeC = CN[C@@H](CS)C(=O)O; Cbz = O=C(OCc1ccccc1)*; NMeDha = C=C(NC)C(=O)O

Assays:
[1] = solubility in aqueous buffer; format: physicochemical
[2] = cytotoxic activity in the L1210 assays
L1210 cell line = assay: cytotoxic activity in the L1210 assays; conditions: L1210 assays
[3] = target: HIV-1 reverse transcriptase (Human immunodeficiency virus type 1 group M subtype B, UniProt P03366); assay: inhibition of HIV-1 reverse transcriptase; format: biochemical
supercoiled ΦX174 DNA = assay: unwinding and rewinding of negatively supercoiled DNA, agarose gel electrophoresis; format: biochemical
Excerpt: Confirmation that thiocoraline and BE-22179 bind to DNA with bisintercalation was derived from their ability to induce the unwinding of negatively supercoiled DNA. This was established by their ability to gradually decrease the agarose gel electrophoresis mobility of supercoiled ΦX174 DNA (unwinding) at increasing concentrations followed by a return to normal mobility (rewinding) at even higher concentrations. Under the conditions employed, echinomycin unwound ΦX174 DNA at a 0.044 agent/base pair ratio (FIG. 11 and FIG. 12). Thiocoraline completely unwound ΦX174 DNA at a higher 0.11 agent/base pair ratio, whereas BE-22179 required even higher concentrations producing the unwinding at an agent/base pair ratio of 1.1. […] Thus, the distinctions in 1 and 2 and echinomycin detected here appear to be related to the nature of the cyclic depsipeptide and not the structure of the chromophore.
FIG. 8 is a table of comparative DNA binding properties. ^aCalf thymus DNA, KB=apparent binding constant determined by fluorescence quenching. The value in paren-theses is the agent/base pair ratio at saturated high-affinity binding and may be considered a measure of the selectivity of binding. ^bAgent/base pair ratio required to unwind negatively supercoiled FX174 DNA (form I to form II gel mobility, 0.9% agarose gel). ^cAgent/base pair ratio required to induce complete rewinding or positive super-coiling of FX174 DNA (form II to form I gel mobility, 0.9% agarose gel). ^dBinding constant established by footprinting at a 5′-CCGC site (FIG. 9).
(A) Lane 1, untreated supercoiled FX174 DNA, 95% form 1 and 5% form II; lanes 2-8, thiocoraline-treated FX174 DNA; lanes 9-14, echinomycin-treated FX174 DNA. The [agent]-to-[base pair] ratios were 0.022 (lanes 2 and 9), 0.033 (lanes 3 and 10), 0.044 (lanes 4 and 11), 0.066 (lanes 5 and 12), 0.11 (lanes 6 and 13), 0.22 (lanes 7 and 14), and 0.44 (lane 8). (B) Lane 1, untreated supercoiled FX174 DNA, lanes 2-12, BE-22179-treated FX174 DNA. The [agent]-to-[base pair] ratios were 0.022, (lane 2), 0.033 (lane 3), 0.044 (lane 4), 0.066 (lane 5), 0.11 (lane 6), 0.22 (lane 7), and 0.33 (lane 8), 0.44 (lane 9), 0.66 (lane 10), 1.1 (lane 11), and 2.2 (lane 12). (C) Lane 1, untreated supercoiled FX174 DNA, 95% form 1 and 5% form II; lanes 2-8, thiocoraline analogue (27)-treated FX174 DNA. The [agent]-to-[base pair] ratios were 0.022 (lane 2), 0.033 (lane 3), 0.044 (lane 4), 0.066 (lane 5), 0.11 (lane 6), 0.22 (lane 7), and 0.44 (lane 8).

## C=C1C(=O)SC[C@@H](NC(=O)c2nc3ccccc3cc2O)C(=O)NCC(=O)N(C)[C@H]2CSSC[C@@H](C(=O)N1C)N(C)C(=O)CNC(=O)[C@H](NC(=O)c1nc3ccccc3cc1O)CSC(=O)C(=C)N(C)C2=O [BE-22179] (I: {Quinaldoyl(3-OH)}-[dC]G[NMeC][NMeDha] / II: {Quinaldoyl(3-OH)}-[dC]G[NMeC][NMeDha]; thioester I:1-II:C, I:C-II:1; disulfide I:3-II:3)
[1]; Tris-HCl pH 7.4, 75 mM NaCl, read-out: agent concentrations where the compounds are soluble
  solubility: 1 to 10 µM (≈ 1.06 to 10.6 µg/mL)
[2]
  IC50: 0.4 nM

## CSC[C@H]1C(=O)SC[C@@H](NC(=O)OCc2ccccc2)C(=O)NCC(=O)N(C)[C@H]2CSSC[C@@H](C(=O)N1C)N(C)C(=O)CNC(=O)[C@H](NC(=O)OCc1ccccc1)CSC(=O)[C@H](CSC)N(C)C2=O [Compound 23, [N-Cbz-D-Cys-Gly-NMe-L--Cys-NMe-L--Cys(Me)]2 (Cysteine Thiol) Dilactone] (I: Cbz-[dC]G[NMeC][NMeC](Me) / II: Cbz-[dC]G[NMeC][NMeC](Me); thioester I:1-II:C, I:C-II:1; disulfide I:3-II:3)
L1210 cell line
  cytotoxic activity (in words): inactive

## CSC[C@H]1C(=O)SC[C@@H](NC(=O)c2ccc3ccccc3n2)C(=O)NCC(=O)N(C)[C@H]2CSSC[C@@H](C(=O)N1C)N(C)C(=O)CNC(=O)[C@H](NC(=O)c1ccc3ccccc3n1)CSC(=O)[C@H](CSC)N(C)C2=O [Compound 26, [N-(2-Quinoline Carboxyl)-D-Cys-Gly-NMe-L--Cys-NMe-L--Cys(Me)]2 (Cysteine Thiol) Dilactone] (I: Quinaldoyl-[dC]G[NMeC][NMeC](Me) / II: Quinaldoyl-[dC]G[NMeC][NMeC](Me); thioester I:1-II:C, I:C-II:1; disulfide I:3-II:3)
L1210 cell line
  cytotoxic activity (in words): less potent cytotoxic activity

## CSC[C@H]1C(=O)SC[C@@H](NC(=O)c2cnc3ccccc3n2)C(=O)NCC(=O)N(C)[C@H]2CSSC[C@@H](C(=O)N1C)N(C)C(=O)CNC(=O)[C@H](NC(=O)c1cnc3ccccc3n1)CSC(=O)[C@H](CSC)N(C)C2=O [Compound 27, [N-(2-Quinoxaline carboxyl)-D-Cys-Gly-NMe-L--Cys-NMe-L--CYS(Me)]2 (Cysteine Thiol) Dilactone] (I: Quinoxaline2carbonyl-[dC]G[NMeC][NMeC](Me) / II: Quinoxaline2carbonyl-[dC]G[NMeC][NMeC](Me); thioester I:1-II:C, I:C-II:1; disulfide I:3-II:3)
L1210 cell line
  cytotoxic activity (in words): less potent cytotoxic activity

## COc1ccc2nc(C(=O)N[C@@H]3CSC(=O)[C@H](CSC)N(C)C(=O)[C@@H]4CSSC[C@@H](C(=O)N(C)[C@@H](CSC)C(=O)SC[C@@H](NC(=O)c5nc6ccc(OC)cc6cc5O)C(=O)NCC(=O)N4C)N(C)C(=O)CNC3=O)c(O)cc2c1 [Compound 28, [N-(3-Hydroxy-6-methoxy-2-quinoline carboxyl)-D-Cys-Gly-NMe-L--CyS-NMe-L--Cys(Me)]2 (Cysteine Thiol) Dilactone] (I: {Quinaldoyl(3-OH,6-OMe)}-[dC]G[NMeC][NMeC](Me) / II: {Quinaldoyl(3-OH,6-OMe)}-[dC]G[NMeC][NMeC](Me); thioester I:1-II:C, I:C-II:1; disulfide I:3-II:3)
L1210 cell line
  cytotoxic activity (in words): potent activity

## CSC[C@H]1C(=O)SC[C@@H](NC(=O)OCC2c3ccccc3-c3ccccc32)C(=O)NCC(=O)N(C)[C@H]2CSSC[C@@H](C(=O)N1C)N(C)C(=O)CNC(=O)[C@H](NC(=O)OCC1c3ccccc3-c3ccccc31)CSC(=O)[C@H](CSC)N(C)C2=O [Compound 32] (I: Fmoc-[dC]G[NMeC][NMeC](Me) / II: Fmoc-[dC]G[NMeC][NMeC](Me); thioester I:1-II:C, I:C-II:1; disulfide I:3-II:3)
L1210 cell line
  cytotoxic activity (in words): inactive

## CS[C@H]1SC[C@H]2C(=O)N(C)[C@@H](C(C)C)C(=O)OC[C@@H](NC(=O)c3cnc4ccccc4n3)C(=O)N[C@@H](C)C(=O)N(C)[C@@H]1C(=O)N(C)[C@@H](C(C)C)C(=O)OC[C@@H](NC(=O)c1cnc3ccccc3n1)C(=O)N[C@@H](C)C(=O)N2C [echinomycin, reference compound]
[1]
  solubility (in words): low solubility
[3]
  inhibition of HIV-1 reverse transcriptase (in words): weak inhibitor
Supercoiled ΦX174 DNA; form I to form II gel mobility
  agent/base pair ratio required to unwind supercoiled DNA: 0.044 agent/base pair ratio
Supercoiled ΦX174 DNA; form II to form I gel mobility
  agent/base pair ratio for complete rewinding of supercoiled DNA: 0.22 agent/base pair ratio
